Measured values taken from patent publication US12325708B2, “Adenosine 2 receptor antagonists” (Nektar Therapeutics, priority 2019, dated 2025).
Like-named read-outs stand apart in the source and are kept apart here.

Legend:
A1 receptor = molecular target: T1, A1 receptor (Homo sapiens, UniProt P30542); experiment: Radioligand receptor binding assay, A1 receptor; details: cell membranes overexpressing A1 receptor, read-out: Potency Ki A1
T1 construct: purchased
T1 sequence (P30542 1-326): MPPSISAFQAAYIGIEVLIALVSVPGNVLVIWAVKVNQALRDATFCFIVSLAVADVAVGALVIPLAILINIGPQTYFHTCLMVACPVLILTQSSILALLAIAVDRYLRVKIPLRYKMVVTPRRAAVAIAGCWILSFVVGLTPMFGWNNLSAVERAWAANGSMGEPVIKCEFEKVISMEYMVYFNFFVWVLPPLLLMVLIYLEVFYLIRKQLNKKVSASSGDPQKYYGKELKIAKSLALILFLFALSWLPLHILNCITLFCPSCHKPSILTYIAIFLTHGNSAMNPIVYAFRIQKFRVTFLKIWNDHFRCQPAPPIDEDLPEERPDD
Method: (§1) Using conventional receptor binding assay techniques, Compounds 1-24 were assayed to determine binding activity at the A2A, A1, and A3 receptors with the results shown in Table 7.
(§2) Receptor binding affinity of Compounds 1-24 was measured using radioligand binding assays using commercially obtained cell membranes prepared from cell lines overexpressing the A2A, A1, or A3 receptors. Briefly, cell membrane preparations from cells expressing the specific receptor were mixed with the appropriate [^3H]-labeled tracer for the specific receptor and the test compound or a known inhibitor of receptor-ligand binding. Following 60 min incubation at room temperature to allow receptor-ligand complex formation, the complexes were collected by filtration, washed with 50 mM Tris HCl (pH 7.5) to remove radioligand that was not receptor-bound, and the remaining radioactivity determined by liquid scintillation counting. Specific radioligand binding was calculated for each test compound concentration and IC50 values were determined by non-linear, regression analysis. Inhibition constants (Ki) were calculated using the equation of Cheng and Prusoff using the observed IC50 of the tested compound, the concentration of radioligand employed in the assay and the experimentally determined values for the Kd of the ligand.

[1] = Plasma pharmacokinetic parameters following intravenous (IV) or oral (PO) administration in rats; assay type: in vivo, Sprague-Dawley rats; details: rat; for Vd: read-out: Vss obs; for Cmax: read-out: Cmax; for Tmax: read-out: Tmax; for Total clearance as % liver blood flow: IV; for F: PO 2.5 mg/kg vs IV 0.5 mg/kg
Method: (§3) Adult male Sprague-Dawley rats (230-250 g) (Charles River Labs, Hollister, CA) were utilized for the study. There were 2 rats/group. All animals were food fasted overnight with water provided ad libitum at all times. Compounds 1, 4, 14 and 19 were synthesized as described in Examples 2, 17, 7, and 12, respectively, and formulated in injectable water.
(§4) The morning of each dosing, individual doses were calculated based on current body weights on the day of dosing. The jugular vein cannula (JVC) and the carotid artery cannula (CAC) were externalized, flushed with HEP/saline (10 IU/mL HEP/mL saline), plugged, and labeled to identify the jugular vein and the carotid artery. The IV group animals were dosed at 0.5 mg/kg of Compound 1, 4, 14 or 19, respectively, intravenously via the jugular vein, while the PO dose was administered 2.5 mg/kg of Compound 1, 4, 14 or 19, respectively, orally via gavage. For the IV group, immediately following the dose of test article, the dead volume of the catheter was flushed with 0.9% saline to ensure the animals received the full dose.
Approximately 0.2 mL of blood was collected per time point from JVC. Blood samples were collected at 2 (IV group only), 5, 15, 30, 60, 120, 240, 360, 420 (Compound 19 only), 480, 720 (Compound 19 only), and 1440 minutes via the CAC and transferred immediately into K2EDTA coated tubes pre-loaded 2 μl with quenching cocktail and placed on wet ice. The samples were centrifuged within 30 min after collection at 10,000 RPM for 5 minutes and the resulting plasma was separated. Plasma was transferred into microfuge tubes and placed on dry ice immediately. The plasma samples were stored at approximately −70° C. until bioanalysis.
Plasma samples were extracted by protein precipitation with acetonitrile containing 0.1% formic acid and doxepin for Compound 1 (available from Sigma-Aldrich) or SCH58261 for Compounds 4, 14 and 19 (available from Sigma-Aldrich) as an internal standard. Following vortex and centrifugation, supernatant was diluted 3-fold with water containing 0.1% formic acid and analyzed by LC-MS/MS.
Pharmacokinetic parameters (PK) were determined by non-compartmental analysis (NCA) using Phoenix 64 WinNonlin (version 8) and Dotmatics (version 5.0). Nominal doses and time points were used for the analysis.
The following PK parameters were estimated using plasma concentration-time profile of each animal with the results presented in Table 3: • AUCinf Area under the concentration-time from zero to time infinity • AUClast Area under the concentration-time from zero to time of last concentration value • F Bioavailability • CL Total body clearance • Cmax Maximum (peak) concentration • MRTlast Mean residence time to last observable concentration • Tmax Time to reach maximum or peak concentration following administration • Vss Volume of distribution at steady state
as §3, with “Compound 1 was” for “Compounds 1, 4, 14 and 19 were”, “Example 2” for “Examples 2, 17, 7, and 12, respectively,”
as §4, with “1” for “1, 4, 14 or 19, respectively,”
Approximately 0.2 mL of blood was collected per time point from JVC. […]

[2] = Brain-to-plasma ratio (B/P) after administration; assay type: in vivo, Sprague-Dawley rats; details: Sprague-Dawley, rat, brain-to-plasma ratio at 1 h
Description: A similar unexpected result was obtained when the phenyl ring present on Compound 1 was replaced with a halogen substituted pyridine. The halogen was previously introduced on the phenyl ring with the aim of blocking a possible metabolic soft-spot, with similar results observed as for Compound 1 in terms of exposure, clearance and bioavailability (Compound 10 and Compound 15). The substituted pyridine ring was designed to modulate the lipophilicity and polar surface area, as well as to address metabolic soft-spot concerns. Clearance and bioavailability parameters remain similar between substituted phenyl and pyridine (Compound 4 and Compound 14) analogs, which span a range in cLogP of 2.7-3.2. It was therefore surprising the significant improvement in exposure and clearance observed for the more lipophilic Compound 19. […] A compound is commonly deemed to be a brain penetrant if the brain-to-blood/plasma concentration ratio (B/P) is greater than 0.04 using methods as known in the art (Schaffer, Annual Reports in Medicinal Chemistry, 45:55-70, 2010).
Plasma pharmacokinetic parameters were determined following oral (PO) administration of further compounds essentially as described in Example 28 with the results shown in Table 6.

A2A receptor = molecular target: T2, A2A receptor (Homo sapiens, UniProt P29274); experiment: Radioligand receptor binding assay, A2A receptor; details: cell membranes overexpressing A2A receptor, read-out: Potency Ki A2A
T2 construct: purchased
Method: as §1, §2

[3] = male, Sprague-Dawley, plasma, 2.5 mg/kg, Table 6, oral (PO) administration essentially as described in Example 28
[4] = male, Sprague-Dawley, plasma, intravenous, 0.5 mg/kg, Table 6, essentially as described in Example 28
[5] = male, Sprague-Dawley, plasma, po, 2.5 mg/kg, Table 6, oral (PO) administration essentially as described in Example 28
[6] = male, Sprague-Dawley, plasma, intravenous, 0.5 mg/kg, Table 2 summary of Example 27, values marked 1 are the average of experiments
[7] = male, Sprague-Dawley, plasma, iv, 0.5 mg/kg, IV 0.5 mg/kg, injectable water
[8] = male, Sprague-Dawley, plasma, oral, 2.5 mg/kg, Table 2 summary of Example 27, values marked 1 are the average of experiments
[9] = male, Sprague-Dawley, plasma, po, 2.5 mg/kg, PO 2.5 mg/kg via gavage, injectable water

T2 sequence (P29274 whole entry): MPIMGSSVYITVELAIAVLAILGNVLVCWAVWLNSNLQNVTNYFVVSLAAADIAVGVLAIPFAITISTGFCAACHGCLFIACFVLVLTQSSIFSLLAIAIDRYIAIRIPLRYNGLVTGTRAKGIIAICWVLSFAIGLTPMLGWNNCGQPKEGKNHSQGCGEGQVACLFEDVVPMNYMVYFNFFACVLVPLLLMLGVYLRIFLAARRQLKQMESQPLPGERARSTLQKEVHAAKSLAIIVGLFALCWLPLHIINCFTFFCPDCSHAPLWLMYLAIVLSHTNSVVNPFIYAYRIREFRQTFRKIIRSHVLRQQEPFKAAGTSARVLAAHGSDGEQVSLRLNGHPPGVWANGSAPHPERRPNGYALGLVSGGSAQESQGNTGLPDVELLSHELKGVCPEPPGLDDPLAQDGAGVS

Row | SMILES | Ki (A1 receptor) | AUC [1, 3] | clearance [1, 4] | bioavailability [1, 5] | Kp at 1 h ([2]; oral, 2.5 mg/kg, Table 6) | Ki (A2A receptor) | clearance [1, 6] | AUC(0-inf) [1, 7] | AUC(0-t) [1, 7] | MRT last [1, 7] | clearance [1, 7] | Vd [1, 7] | AUC [1, 8] | bioavailability [1, 8] | AUC(0-inf) [1, 9] | AUC(0-t) [1, 9] | MRT last [1, 9] | Cmax [1, 9] | Tmax [1, 9] | Total clearance as % liver blood flow [1] | further results
1 | [2H]C([2H])([2H])OC([2H])([2H])C([2H])([2H])Oc1cnc(N2CCN(CCN(C)c3cc4nc(-c5ncco5)nn4c(N)n3)CC2)c(F)c1 [Compound 13, N^7-(2-{4-[3-fluoro-5-({2-[(^2H3)methyloxy](^2H4)ethyl}oxy)pyridin-2-yl]piperazin-1-yl}ethyl)-N^7-methyl-2-(1,3-oxazol-2-yl)[1,2,4]triazolo[1,5-c]pyrimidine-5,7-diamine] | 32.4 µM | 0.709 µg·h/mL | 1.98 L/h/kg | 57% | 0.06 | 0.004 µM |  |  |  |  |  |  |  |  |  |  |  |  |  |  | 
2 | COCCOc1cnc(N2CCN(CCN(C)c3cc4nc(-c5ncco5)nn4c(N)n3)CC2)c(Cl)c1 [Compound 14, N^7-(2-{4-[3-chloro-5-(2-methoxyethoxy)pyridin-2-yl]piperazin-1-yl}ethyl)-N^7-methyl-2-(1,3-oxazol-2-yl)[1,2,4]triazolo[1,5-c]pyrimidine-5,7-diamine] | 15 µM |  |  |  |  | 0.004 µM | 1.02 L/h/kg | 0.526 µg·h/mL | 0.523 µg·h/mL | 0.977 h | 0.996 L/h/kg | 1.02 L/kg | 1.48 µg·h/mL | 56% | 1.48 µg·h/mL | 1.37 µg·h/mL | 2.43 h | 0.373 µg/mL | 1 h | ~28 % liver blood flow | F [1]: 56.1%; Kp at 1 h ([2]; Table 2): 0.025
3 | COCCOc1ccc(N2CCN(CCN(C)c3cc4nc(-c5ncco5)nn4c(N)n3)CC2)c(Cl)c1 [Compound 15, N^7-(2-{4-[2-chloro-4-(2-methoxyethoxy)phenyl]piperazin-1-yl}ethyl)-N^7-methyl-2-(1,3-oxazol-2-yl)[1,2,4]triazolo[1,5-c]pyrimidine-5,7-diamine] | 3.94 µM | 1.16 µg·h/mL | 1.2 L/h/kg | 57% | 0.05 | 0.0023 µM |  |  |  |  |  |  |  |  |  |  |  |  |  |  | half-life ([1]; male, Sprague-Dawley, plasma, Table 6, printed in the CL column, read-out: t½ (converted)): 1.2 h
4 | COCCOc1ccc(N2CCN(CCN(C)c3cc4nc(-c5ncco5)nn4c(N)n3)CC2)c(OC)c1 [Compound 17, N^7-(2-{4-[2-methoxy-4-(2-methoxyethoxy)phenyl]piperazin-1-yl}ethyl)-N^7-methyl-2-(1,3-oxazol-2-yl)[1,2,4]triazolo[1,5-c]pyrimidine-5,7-diamine] | 11.8 µM | 0.406 µg·h/mL | 2.64 L/h/kg | 43% | 0.03 | 0.02 µM |  |  |  |  |  |  |  |  |  |  |  |  |  |  | 
5 | [2H]C([2H])([2H])OC([2H])([2H])C([2H])([2H])Oc1ccc(N2CCN(CCN(c3cc4nc(-c5ncco5)nn4c(N)n3)C([2H])([2H])[2H])CC2)cc1 [Compound 18, N^7-(^2H3)methyl-N^7-(2-{4-[4-({2-[(^2H3)methyloxy](^2H4)ethyl}oxy)phenyl]piperazin-1-yl}ethyl)-2-(1,3-oxazol-2-yl)[1,2,4]triazolo[1,5-c]pyrimidine-5,7-diamine] | > 100 µM | 0.9 µg·h/mL | 1.98 L/h/kg | 71% | 0.09 | 0.008 µM |  |  |  |  |  |  |  |  |  |  |  |  |  |  | 
6 | COCCOc1cnc(N2CCN(CCN(C)c3cc4nc(-c5ncco5)nn4c(N)n3)CC2)c(C(F)(F)F)c1 [Compound 19, N^7-(2-{4-[5-(2-methoxyethoxy)-3-(trifluoromethyl)pyridin-2-yl]piperazin-1-yl}ethyl)-N^7-methyl-2-(1,3-oxazol-2-yl)[1,2,4]triazolo[1,5-c]pyrimidine-5,7-diamine] | 16 µM |  |  |  |  | 0.004 µM | 0.42 L/h/kg | 1.23 µg·h/mL | 1.22 µg·h/mL | 1.48 h | 0.411 L/h/kg | 0.635 L/kg | 4.98 µg·h/mL | 83% | 5.05 µg·h/mL | 4.98 µg·h/mL | 2.65 h | 1.3 µg/mL | 1.25 h | ~10 % liver blood flow | Cmax [1, 7]: 1.02 µg/mL; Tmax [1, 7]: 0.033 h; MRTlast ([1]; IV 0.5 mg/kg, injectable water, 0.5 mg/kg): 1.4825 h; CL ([1]; PO 2.5 mg/kg row of Table 3): 0.543 L/h/kg; F [1]: 82.7%; Kp at 1 h ([2]; Table 2): 0.01
